Reference: US5925648A, “Tricyclic N-cyanoimines useful as inhibitors of a farnesyl-protein transferase” (Schering Corporation, priority 1997, dated 1999)

These compounds were tested on Ras processing (assay: COS IC50, cell-based assay: COS cells activity inhibition of Ras processing).
Experimental: 2. Cell-based assay. COS IC50 values refer to the COS cells activity inhibition of Ras processing, are determined by the methods disclosed in […] or WO 95/10516.

Row | SMILES | IC50 [nM]
1 | N#CN=C(Nc1ccc2c(c1)COCO2)N1CCC(=C2c3ccc(Cl)cc3CCc3cc(Br)cnc32)CC1 [Example 11] | 250
2 | N#CN=C(Nc1ccccc1)N1CCC(=C2c3ccc(Cl)cc3CCc3cccnc32)CC1 [Example 14] | 2500
3 | CCOC(=O)N1CCC(NC(=NC#N)N2CCC(=C3c4ccc(Cl)cc4CCc4cc(Br)cnc43)CC2)CC1 [Example 15] | 560
4 | CNC(=NC#N)N1CCC(=C2c3ccc(Cl)cc3CCc3cc(Br)cnc32)CC1 [Example 17] | 5000
5 | N#CN=C(Nc1ccc2c(c1)OCO2)N1CCC(=C2c3ccc(Cl)cc3CCc3cc(Br)cnc32)CC1 [Example 18] | 800
6 | N#CN=C(NC1CCCCC1)N1CCC(=C2c3ccc(Cl)cc3CCc3cc(Br)cnc32)CC1 [Example 19] | 480
7 | CCCCNC(=NC#N)N1CCC(=C2c3ccc(Cl)cc3CCc3cc(Br)cnc32)CC1 [Example 20] | 1600
8 | COc1ccc(NC(=NC#N)N2CCC(=C3c4ccc(Cl)cc4CCc4cc(Br)cnc43)CC2)cc1 [Example 25] | 270
9 | N#CN=C(NCc1ccccn1)N1CCC(=C2c3ccc(Cl)cc3CCc3cc(Br)cnc32)CC1 [Example 26] | 750
10 | N#CN=C(Nc1ccc(F)cc1)N1CCC(=C2c3ccc(Cl)cc3CCc3cc(Br)cnc32)CC1 [Example 29] | 570
11 | N#CN=C(NCCc1ccncc1)N1CCC(=C2c3ccc(Cl)cc3CCc3cc(Br)cnc32)CC1 [Example 36] | 280
12 | N#CN=C(Nc1ccc(C#N)cc1)N1CCC(=C2c3ccc(Cl)cc3CCc3cc(Br)cnc32)CC1 [Example 37] | 280
13 | N#CN=C(NCc1cccnc1)N1CCC(=C2c3ccc(Cl)cc3CCc3cc(Br)cnc32)CC1 [Example 41] | 700
14 | N#CN=C(NCCCn1ccnc1)N1CCC(=C2c3ccc(Cl)cc3CCc3cc(Br)cnc32)CC1 [Example 42] | 4000
15 | N#CN=C(NCc1ccc[n+]([O-])c1)N1CCC(=C2c3ccc(Cl)cc3CCc3cc(Br)cnc32)CC1 [Example 60] | > 1000
16 | N#CN=C(NCc1cc[n+]([O-])cc1)N1CCC(=C2c3ccc(Cl)cc3CCc3cc(Br)cnc32)CC1 [Example 70] | 16000

Next, values leading:

Row | IC50 [nM] | SMILES
17 | 2400 | N#CN=C(Nc1cccnc1)N1CCC(=C2c3ccc(Cl)cc3CCc3cc(Br)cnc32)CC1 [Example 23]
18 | 2300 | CCOC(=NC#N)N1CCC(=C2c3ccc(Cl)cc3CCc3cc(Br)cnc32)CC1 [Example 16]
19 | 250 | N#CN=C(Nc1ccc2c(c1)COCO2)N1CCC(=C2c3ccc(Cl)cc3CCc3cccnc32)CC1 [Example 10]
20 | 2600 | N#CN=C(NCCO)N1CCC(=C2c3ccc(Cl)cc3CCc3cc(Br)cnc32)CC1 [Example 27]
21 | < 250 | N#CN=C(Nc1ccc2c(c1)COCO2)N1CCN(C2c3ccc(Cl)cc3CCc3cc(Br)cnc32)CC1 (stereo not drawn) [Example 24]

The compounds below were run against T1, farnesyl protein transferase (Rattus norvegicus, UniProt Q02293+Q04631) (assay: FPT IC50 (inhibition of farnesyl protein transferase, in vitro enzyme assay; Ras-CVLS farnesylation by partially purified rat brain FPT)).
T1 construct: partially purified rat brain farnesyl protein transferase (FPT); from tissue; host or cells: rat brain
Type: biochemical
Experimental: 1. In vitro enzyme assays: FPT IC50 (inhibition of farnesyl protein transferase, in vitro enzyme assay) are determined by the methods disclosed in […] or WO 95/10516.

Row | SMILES | IC50 [nM]
22 | CSC(=NC#N)N1CCC(=C2c3ccc(Cl)cc3CCc3cc(Br)cnc32)CC1 [Example 12] | < 410
23 | N#CN=C(N1CCOCC1)N1CCC(=C2c3ccc(Cl)cc3CCc3cc(Br)cnc32)CC1 [Example 13] | 720
24 | N#CN=C(NC1CCN(Cc2ccccc2)CC1)N1CCC(=C2c3ccc(Cl)cc3CCc3cc(Br)cnc32)CC1 [Example 22] | 170
25 | CN1CCN(NC(=NC#N)N2CCC(=C3c4ccc(Cl)cc4CCc4cc(Br)cnc43)CC2)CC1 [Example 31] | 260
26 | N#CN=C(N1CCCCC1)N1CCC(=C2c3ccc(Cl)cc3CCc3cc(Br)cnc32)CC1 [Example 32] | 270
27 | N#CN=C(N)N1CCC(=C2c3ccc(Cl)cc3CCc3cc(Br)cnc32)CC1 [Example 33] | 2800
28 | N#CN=C(Nc1ccc2c(c1)COCO2)N1CCC(C2c3ccc(Cl)cc3C=Cc3cc(Br)cnc32)CC1 (stereo not drawn) [Example 34] | 9600
29 | N#CN=C(Nc1ccc2ncccc2c1)N1CCC(=C2c3ccc(Cl)cc3CCc3cc(Br)cnc32)CC1 [Example 46] | 150
30 | Cn1c(NC(=NC#N)N2CCC(=C3c4ccc(Cl)cc4CCc4cc(Br)cnc43)CC2)cc(=O)n(C)c1=O [Example 50] | 300
31 | N#CN/C(=N/c1ccncc1)N1CCC(=C2c3ccc(Cl)cc3CCc3cc(Br)cnc32)CC1 [Example 54] | > 110
32 | COc1ccc2[nH]cc(CCNC(=NC#N)N3CCC(=C4c5ccc(Cl)cc5CCc5cc(Br)cnc54)CC3)c2c1 [Example 64] | > 950
33 | N#CN=C(NCc1ccc2c(c1)OCO2)N1CCC(=C2c3ccc(Cl)c(Br)c3CCc3cc(Br)cnc32)CC1 [Example 72] | > 100
34 | N#CN=C(c1ccncc1)N1CCC(C2c3ncc(Br)cc3CCc3cc(Cl)cc(Br)c32)CC1 (stereo not drawn) [Example 83] | > 33

The next lines start with the values.

Row | IC50 [nM] | SMILES
35 | 140 | N#CN=C(Nc1cccnc1)N1CCC(=C2c3ccc(Cl)cc3CCc3cc(Br)cnc32)CC1 [Example 23]
36 | 110 | N#CN=C(Nc1ccc2c(c1)OCCO2)N1CCC(=C2c3ccc(Cl)cc3CCc3cc(Br)cnc32)CC1 [Example 55]
37 | 87 | N#CN=C(NCc1ccc(N)cc1)N1CCC(=C2c3ccc(Cl)cc3CCc3cc(Br)cnc32)CC1 [Example 53]
38 | 87 | CS(=O)(=O)c1ccc(N/C(=N\C#N)N2CCC(=C3c4ccc(Cl)cc4CCc4cc(Br)cnc43)CC2)cc1 [Example 59]
39 | 74 | CN(C)CCCNC(=NC#N)N1CCC(=C2c3ccc(Cl)cc3CCc3cc(Br)cnc32)CC1 [Example 45]
40 | 73 | N#CN=C(NCc1ccco1)N1CCC(=C2c3ccc(Cl)cc3CCc3cc(Br)cnc32)CC1 [Example 51]
41 | 64 | N#C/N=C(\Nc1ccc([N+](=O)[O-])cc1)N1CCC(=C2c3ccc(Cl)cc3CCc3cc(Br)cnc32)CC1 [Example 48]
42 | 64 | N#CN=C(NCc1ccncc1)N1CCC(=C2c3ccc(Cl)cc3CCc3cccnc32)CC1 [Example 78]
43 | 54 | CCOC(=NC#N)N1CCC(=C2c3ccc(Cl)cc3CCc3cc(Br)cnc32)CC1 [Example 16]
44 | 42 | CSC(=NC#N)N1CCC(=C2c3ccc(Cl)c(Br)c3CCc3cc(Br)cnc32)CC1 [Example 56]
45 | 38 | N#CN=C(Nc1ccc(N2CCOCC2)cc1)N1CCC(=C2c3ccc(Cl)c(Br)c3CCc3cc(Br)cnc32)CC1 [Example 80]
46 | 26 | CSC(=NC#N)N1CCC(=C2c3ccc(Cl)cc3CCc3cc(Br)cnc32)CC1 [Example 73]
47 | 24 | N#CN/C(=N/Cc1ccc2c(c1)OCO2)N1CCC(=C2c3ccc(Cl)cc3CCc3cc(Br)cnc32)CC1 [Example 52]
48 | 18 | N#CN=C(Nc1ccc2c(c1)COCO2)N1CCC(=C2c3ccc(Cl)cc3CCc3cccnc32)CC1 [Example 10]
49 | 17 | N#CN=C(NCCO)N1CCC(=C2c3ccc(Cl)cc3CCc3cc(Br)cnc32)CC1 [Example 27]
50 | 15 | N#CN=C(NCc1ccc(S(N)(=O)=O)cc1)N1CCC(=C2c3ccc(Cl)c(Br)c3CCc3cc(Br)cnc32)CC1 [Example 74]
51 | 14 | N#CN=C(Nc1ccc2c(c1)COCO2)N1CCC(=C2c3ccc(Cl)c(Br)c3CCc3cccnc32)CC1 [Example 47]
52 | 14 | CSC(=NC#N)N1CCC(=C2c3ccc(Cl)c(Br)c3CCc3cc(Br)cnc32)CC1 [Example 66]
53 | 13 | N#CN=C(Nc1cc[n+]([O-])cc1)N1CCC(=C2c3ccc(Cl)cc3CCc3cc(Br)cnc32)CC1 [Example 49]
54 | 11 | N#CN=C(NCc1ccncc1)N1CCN(C2c3ccc(Cl)cc3CCc3cc(Br)cnc32)CC1 (stereo not drawn) [Example 43]
55 | 10 | N#CN=C(Nc1ccc2c(c1)COCO2)N1CCN(C2c3ccc(Cl)cc3CCc3cc(Br)cnc32)CC1 (stereo not drawn) [Example 24]
56 | 7 | N#CN=C(NCCCN1CCCC1=O)N1CCC(C2c3ccc(Cl)c(Br)c3CCc3cc(Br)cnc32)CC1 (stereo not drawn) [Example 68]
57 | 5 | N#CN=C(NCc1ccncc1)N1CCC(=C2c3ccc(Cl)c(Br)c3CCc3cc(Br)cnc32)CC1 [Example 61]
58 | 4.8 | N#CN=C(NCc1cccnc1)N1CCC(=C2c3ccc(Cl)c(Br)c3CCc3cc(Br)cnc32)CC1 [Example 75]
59 | 4.7 | N#CN=C(NCC1CCNCC1)N1CCC(=C2c3ccc(Cl)c(Br)c3CCc3cc(Br)cnc32)CC1 [Example 76]
60 | 4.6 | N#CN=C(NCc1ccc[n+]([O-])c1)N1CCC(=C2c3ccc(Cl)c(Br)c3CCc3cc(Br)cnc32)CC1 [Example 81]
61 | 4.4 | N#CN=C(NCC1CCN(C(N)=O)CC1)N1CCC(=C2c3ccc(Cl)c(Br)c3CCc3cc(Br)cnc32)CC1 [Example 77]
62 | 3.7 | N#CN=C(NCCOCCO)N1CCC(C2c3ccc(Cl)c(Br)c3CCc3cc(Br)cnc32)CC1 (stereo not drawn) [Example 69]
63 | 1.7 | N#CN=C(NCc1ccncc1)N1CCC(C2c3ccc(Cl)c(Br)c3CCc3cc(Br)cnc32)CC1 (stereo not drawn) [Example 67]
